Key:
Assay type in all cases: cell-based
E. coli 257 = experiment: microbe, parasite or virus in culture; conditions: agar dilution
Method: (§1) In vitro activity of the compounds of the present invention was measured by the Minimum Inhibitory Concentration (MIC) in micrograms/ml utilizing the Agar Dilution Method, which is well known in the art, against a variety of gram-negative and gram-positive organisms.

E. coli ATCC 25922 = experiment: microbe, parasite or virus in culture; conditions: agar dilution
Method: as §1

E. coli TEM-1 = experiment: microbe, parasite or virus in culture; conditions: agar dilution
Method: as §1

Enter. cloacae P99 = experiment: microbe, parasite or virus in culture; conditions: agar dilution
Method: as §1

Cit. freundi BS-16 = experiment: In vitro MIC, Agar Dilution Method
Method: as §1

Enter. cloacae 5699 = experiment: In vitro MIC, Agar Dilution Method; conditions: Enter. cloacae 5699; agar dilution
Method: as §1

K. pneumoniae A = experiment: In vitro MIC, Agar Dilution Method; conditions: K. pneumoniae A; agar dilution
Method: as §1

Prot. mirabilis 90 = experiment: In vitro MIC, Agar Dilution Method; conditions: Prot. mirabilis 90; agar dilution
Method: as §1

Prot. vulgaris 1028 BC = experiment: In vitro MIC, Agar Dilution Method
Method: as §1

Prot. vulgaris ATCC 6380 = experiment: In vitro MIC, Agar Dilution Method
Method: as §1

Ps. aeruginosa 18SH = experiment: In vitro MIC, Agar Dilution Method
Method: as §1

Ps. aeruginosa 5712 = experiment: In vitro MIC, Agar Dilution Method
Method: as §1

Ps. aeruginosa 765 = experiment: In vitro MIC, Agar Dilution Method
Method: as §1

Ps. aeruginosa 8780 = experiment: In vitro MIC, Agar Dilution Method
Method: as §1

[1] = tested on: Ps. aeruginosa ATCC 27853; experiment: In vitro MIC, Agar Dilution Method
Method: as §1

Ser. marcescens 1071 = experiment: In vitro MIC, Agar Dilution Method; conditions: Ser. marcescens 1071; agar dilution
Method: as §1

Ser. marcescens SM = experiment: In vitro MIC, Agar Dilution Method
Method: as §1

Staph. aureus 1059B = experiment: In vitro MIC, Agar Dilution Method
Method: as §1

Staph. aureus 67 = experiment: In vitro MIC, Agar Dilution Method; conditions: Staph. aureus 67; agar dilution
Method: as §1

Staph. aureus 753 = experiment: In vitro MIC, Agar Dilution Method
Method: as §1

Staph. aureus ATCC 29213 = experiment: In vitro MIC, Agar Dilution Method
Method: as §1

Staph. aureus Smith = experiment: In vitro MIC, Agar Dilution Method
Method: as §1

Str. faecalis ATCC 29212 = experiment: In vitro MIC, Agar Dilution Method; conditions: Str. faecalis ATCC 29212; agar dilution
Method: as §1

Str. pneumoniae 6301 = experiment: In vitro MIC, Agar Dilution Method; conditions: Str. pneumoniae 6301; agar dilution
Method: as §1

Str. pyogenes 4 = experiment: In vitro MIC, Agar Dilution Method; conditions: Str. pyogenes 4; agar dilution
Method: as §1

Row | SMILES | MIC (E. coli 257) [µg/mL] | MIC (E. coli ATCC 25922) [µg/mL] | MIC (E. coli TEM-1) [µg/mL] | MIC (Enter. cloacae P99) [µg/mL] | MIC (Cit. freundi BS-16) [µg/mL] | MIC (Enter. cloacae 5699) [µg/mL] | MIC (K. pneumoniae A) [µg/mL] | MIC (Prot. mirabilis 90) [µg/mL] | MIC (Prot. vulgaris 1028 BC) [µg/mL] | MIC (Prot. vulgaris ATCC 6380) [µg/mL] | MIC (Ps. aeruginosa 18SH) [µg/mL] | MIC (Ps. aeruginosa 5712) [µg/mL] | MIC (Ps. aeruginosa 765) [µg/mL] | MIC (Ps. aeruginosa 8780) [µg/mL] | MIC [1] [µg/mL] | MIC (Ser. marcescens 1071) [µg/mL] | MIC (Ser. marcescens SM) [µg/mL] | MIC (Staph. aureus 1059B) [µg/mL] | MIC (Staph. aureus 67) [µg/mL] | MIC (Staph. aureus 753) [µg/mL] | other results
1 | CC(C)(O/N=C(\C(=O)N[C@@H]1C(=O)N2C(C(=O)[O-])=C(CN3CCN(c4cc5c(cc4F)c(=O)c(C(=O)O)cn5C4CC4)CC3)CS[C@H]12)c1csc(N)n1)C(=O)O.[Na+] [Compound A, [6R-[6α,7β(Z)]]-7-[[(2-Amino-4-thiazolyl)[(1-carboxy-1-methylethoxy)imino]acetyl]amino]-3-[[4-(3-carboxy-1-cyclopropyl-6-fluoro-1,4-dihydro-4-oxo-7-quinolinyl)-1-piperazinyl]methyl]-8-oxo-5-thia-1-azabicyclo[4.2.0]oct-2-ene-2-carboxylic acid sodium salt] | 250 | 250 | 500 | 500 | 125 | 1000 | 500 | 2000 | 1000 | 500 | 2000 | 16000 | 8000 | 8000 | 8000 | 1000 | 1000 | 4000 | 16000 | 8000 | MIC (Staph. aureus ATCC 29213): 8000 µg/mL; MIC (Staph. aureus Smith): 8000 µg/mL; MIC (Str. faecalis ATCC 29212): 8000 µg/mL; MIC (Str. pneumoniae 6301): 250 µg/mL; MIC (Str. pyogenes 4): 250 µg/mL
2 | Nc1nc(/C(=N/OCC(=O)O)C(=O)N[C@@H]2C(=O)N3C(C(=O)[O-])=C(CN4CCN(c5cc6c(cc5F)c(=O)c(C(=O)O)cn6C5CC5)CC4)CS[C@H]23)cs1.[Na+] [Compound B, [6R-[6α,7β(Z)]]-7-[[(2-Amino-4-thiazolyl)[(carboxy-methoxy)imino]acetyl]amino]-3-[[4-(3-carboxy-1-cyclopropyl-6-fluoro-1,4-dihydro-4-oxo-7-quinolinyl)-1-piperazinyl]methyl]-8-oxo-5-thia-1-azabicyclo[4.2.0]oct-2-ene-2-carboxylic acid sodium salt] | 250 | 500 | 500 | 250 | 1000 | 1000 | 1000 | 2000 | 1000 | 250 | 4000 | 32000 | 8000 | 8000 | 16000 | 2000 | 1000 | 2000 | 32000 | 8000 | MIC (Staph. aureus ATCC 29213): 8000 µg/mL; MIC (Staph. aureus Smith): 8000 µg/mL; MIC (Str. faecalis ATCC 29212): 16000 µg/mL; MIC (Str. pneumoniae 6301): 250 µg/mL; MIC (Str. pyogenes 4): 125 µg/mL
